From ChEMBL document CHEMBL5096194, “Development of Alectinib-Based PROTACs as Novel Potent Degraders of Anaplastic Lymphoma Kinase (ALK)” (J Med Chem, 2021)
Active and inactive are the calls of the source. The rule behind the calls is not given here.

Legend:
NCI-H3122 = assay: Antiproliferative activity against ALK-positive human NCI-H3122 cells assessed as inhibition of cell proliferation measured after 72 hrs by MTT assay; assay type: functional, cell-based; conditions: NCI-H3122, 72 h
KARPAS-299 [1] = assay: Antiproliferative activity against ALK-positive human KARPAS-299 cells assessed as inhibition of cell proliferation measured after 72 hrs by MTT assay; assay type: functional, cell-based; conditions: KARPAS-299, 72 h
[2] = biological target: T1, Protein cereblon/ALK tyrosine kinase receptor/Nucleophosmin (Homo sapiens) (UniProt Q9UM73+P06748+Q96SW2); assay: Protac activity at CRBN/NPM-ALK in human KARPAS-299 cells assessed as induction of NPM-ALK fusion protein degradation at 1 uM incubated for 24 hrs by Western blot analysis relative to control; assay type: cell-based
T1 sequence (P06748 whole entry partner, the tested form may be a part): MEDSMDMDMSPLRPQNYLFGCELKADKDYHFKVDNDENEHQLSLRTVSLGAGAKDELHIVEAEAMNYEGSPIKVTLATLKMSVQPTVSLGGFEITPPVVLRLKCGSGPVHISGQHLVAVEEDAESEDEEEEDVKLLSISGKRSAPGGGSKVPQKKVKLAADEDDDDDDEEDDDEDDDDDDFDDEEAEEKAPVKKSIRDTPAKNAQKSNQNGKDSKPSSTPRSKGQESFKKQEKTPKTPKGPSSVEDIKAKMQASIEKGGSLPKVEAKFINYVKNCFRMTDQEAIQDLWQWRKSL
T1 sequence (Q96SW2 whole entry partner, the tested form may be a part): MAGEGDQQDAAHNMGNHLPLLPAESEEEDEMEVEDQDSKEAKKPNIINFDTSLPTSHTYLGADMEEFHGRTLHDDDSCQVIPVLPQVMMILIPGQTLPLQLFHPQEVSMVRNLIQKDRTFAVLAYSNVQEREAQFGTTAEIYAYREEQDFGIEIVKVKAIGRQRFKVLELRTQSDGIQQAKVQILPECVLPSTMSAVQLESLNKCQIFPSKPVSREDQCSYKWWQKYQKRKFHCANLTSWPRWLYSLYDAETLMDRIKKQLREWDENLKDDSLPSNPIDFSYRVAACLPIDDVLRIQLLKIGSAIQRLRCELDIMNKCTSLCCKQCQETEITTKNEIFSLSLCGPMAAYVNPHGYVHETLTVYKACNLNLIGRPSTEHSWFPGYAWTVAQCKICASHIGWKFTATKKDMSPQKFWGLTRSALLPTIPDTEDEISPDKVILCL
T1 sequence (Q9UM73 19-1620 limits assumed): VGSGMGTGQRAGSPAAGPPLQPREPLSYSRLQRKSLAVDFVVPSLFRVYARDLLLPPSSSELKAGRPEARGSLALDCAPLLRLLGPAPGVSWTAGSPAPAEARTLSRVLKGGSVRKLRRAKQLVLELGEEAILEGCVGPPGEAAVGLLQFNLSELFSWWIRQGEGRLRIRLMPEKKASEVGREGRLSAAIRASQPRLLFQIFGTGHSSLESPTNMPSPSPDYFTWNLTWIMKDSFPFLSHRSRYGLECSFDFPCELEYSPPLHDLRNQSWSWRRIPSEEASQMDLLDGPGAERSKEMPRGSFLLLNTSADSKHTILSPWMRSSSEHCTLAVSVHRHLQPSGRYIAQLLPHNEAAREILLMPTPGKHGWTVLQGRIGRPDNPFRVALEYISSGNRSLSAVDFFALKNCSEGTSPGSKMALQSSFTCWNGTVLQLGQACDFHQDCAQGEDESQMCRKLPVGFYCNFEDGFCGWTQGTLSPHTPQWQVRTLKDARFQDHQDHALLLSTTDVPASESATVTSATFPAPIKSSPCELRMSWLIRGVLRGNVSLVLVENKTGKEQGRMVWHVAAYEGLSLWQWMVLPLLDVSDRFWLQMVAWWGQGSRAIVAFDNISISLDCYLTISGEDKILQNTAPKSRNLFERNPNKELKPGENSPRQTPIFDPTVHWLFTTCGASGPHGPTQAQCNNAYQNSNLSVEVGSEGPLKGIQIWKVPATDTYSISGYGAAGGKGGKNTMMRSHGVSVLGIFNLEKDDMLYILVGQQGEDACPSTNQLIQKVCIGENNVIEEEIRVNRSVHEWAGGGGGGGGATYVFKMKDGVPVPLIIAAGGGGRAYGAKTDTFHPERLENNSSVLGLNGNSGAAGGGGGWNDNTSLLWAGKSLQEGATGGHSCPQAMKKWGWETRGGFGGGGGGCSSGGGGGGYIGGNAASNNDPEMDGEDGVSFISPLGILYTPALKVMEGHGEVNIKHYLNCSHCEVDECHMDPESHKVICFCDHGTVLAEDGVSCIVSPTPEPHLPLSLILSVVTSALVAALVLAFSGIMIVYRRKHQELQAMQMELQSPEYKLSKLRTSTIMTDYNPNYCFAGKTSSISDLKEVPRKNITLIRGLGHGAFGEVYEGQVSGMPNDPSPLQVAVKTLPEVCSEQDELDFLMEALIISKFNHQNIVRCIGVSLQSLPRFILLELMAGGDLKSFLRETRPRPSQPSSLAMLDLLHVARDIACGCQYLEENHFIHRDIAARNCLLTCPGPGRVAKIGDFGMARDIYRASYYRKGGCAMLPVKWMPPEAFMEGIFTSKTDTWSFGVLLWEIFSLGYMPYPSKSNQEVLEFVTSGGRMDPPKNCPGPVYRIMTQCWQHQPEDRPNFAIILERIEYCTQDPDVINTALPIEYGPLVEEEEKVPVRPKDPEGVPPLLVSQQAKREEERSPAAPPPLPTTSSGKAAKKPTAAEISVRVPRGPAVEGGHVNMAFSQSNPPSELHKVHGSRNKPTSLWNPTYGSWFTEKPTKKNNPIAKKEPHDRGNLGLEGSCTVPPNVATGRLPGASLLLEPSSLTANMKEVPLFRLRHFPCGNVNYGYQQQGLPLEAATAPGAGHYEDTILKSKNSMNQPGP

[3] = biological target: T2, ALK tyrosine kinase receptor (Homo sapiens, UniProt Q9UM73); assay: Inhibition of ALK phosphorylation in human KARPAS-299 cells at 100 nM measured after 48 hrs by Western blot analysis; assay type: cell-based
T2 sequence (Q9UM73 19-1620 limits assumed): as above

[4] = biological target: Signal transducer and activator of transcription 3 (Homo sapiens) (UniProt P40763); assay: Inhibition of STAT3 phosphorylation in human KARPAS-299 cells as 100 nM measured after 24 hrs by Western blot analysis relative to control; assay type: cell-based
Sequence of Signal transducer and activator of transcription 3 (Homo sapiens) (P40763 whole entry, the tested form may be a part): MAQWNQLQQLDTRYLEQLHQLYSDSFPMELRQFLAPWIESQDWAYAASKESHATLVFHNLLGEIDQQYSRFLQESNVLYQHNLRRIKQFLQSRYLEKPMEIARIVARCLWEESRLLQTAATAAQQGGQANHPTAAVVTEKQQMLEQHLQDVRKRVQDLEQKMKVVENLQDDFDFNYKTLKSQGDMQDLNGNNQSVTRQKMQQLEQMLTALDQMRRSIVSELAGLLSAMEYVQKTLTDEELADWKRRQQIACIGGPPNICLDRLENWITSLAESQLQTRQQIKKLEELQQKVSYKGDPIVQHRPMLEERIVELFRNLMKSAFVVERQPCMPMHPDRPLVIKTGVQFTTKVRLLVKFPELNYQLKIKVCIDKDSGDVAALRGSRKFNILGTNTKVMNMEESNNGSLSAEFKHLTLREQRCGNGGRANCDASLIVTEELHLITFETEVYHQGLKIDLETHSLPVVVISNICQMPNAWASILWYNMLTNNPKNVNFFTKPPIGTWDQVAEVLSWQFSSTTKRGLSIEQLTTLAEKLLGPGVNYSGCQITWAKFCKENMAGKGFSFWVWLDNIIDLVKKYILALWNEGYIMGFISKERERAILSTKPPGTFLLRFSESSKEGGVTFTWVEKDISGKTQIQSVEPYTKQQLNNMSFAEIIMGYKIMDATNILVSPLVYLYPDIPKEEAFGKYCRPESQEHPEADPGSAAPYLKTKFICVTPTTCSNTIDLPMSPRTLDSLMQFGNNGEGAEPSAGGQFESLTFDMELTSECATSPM

[5] = biological target: Protein cereblon/ALK tyrosine kinase receptor/Echinoderm microtubule-associated protein-like 4 (Homo sapiens) (UniProt Q9UM73+Q9HC35+Q96SW2); assay: Protac activity at CRBN/EML4-ALK in human NCI-H3122 cells assessed as induction of EML4-ALK fusion protein degradation at 0.25 uM incubated for 16 hrs by Western blot analysis; assay type: cell-based
Sequence of Protein cereblon/ALK tyrosine kinase receptor/Echinoderm microtubule-associated protein-like 4 (Homo sapiens) (Q96SW2 whole entry partner, the tested form may be a part): as the sequence (Q96SW2 whole entry partner, the tested form may be a part) above
Sequence of Protein cereblon/ALK tyrosine kinase receptor/Echinoderm microtubule-associated protein-like 4 (Homo sapiens) (Q9HC35 whole entry partner, the tested form may be a part): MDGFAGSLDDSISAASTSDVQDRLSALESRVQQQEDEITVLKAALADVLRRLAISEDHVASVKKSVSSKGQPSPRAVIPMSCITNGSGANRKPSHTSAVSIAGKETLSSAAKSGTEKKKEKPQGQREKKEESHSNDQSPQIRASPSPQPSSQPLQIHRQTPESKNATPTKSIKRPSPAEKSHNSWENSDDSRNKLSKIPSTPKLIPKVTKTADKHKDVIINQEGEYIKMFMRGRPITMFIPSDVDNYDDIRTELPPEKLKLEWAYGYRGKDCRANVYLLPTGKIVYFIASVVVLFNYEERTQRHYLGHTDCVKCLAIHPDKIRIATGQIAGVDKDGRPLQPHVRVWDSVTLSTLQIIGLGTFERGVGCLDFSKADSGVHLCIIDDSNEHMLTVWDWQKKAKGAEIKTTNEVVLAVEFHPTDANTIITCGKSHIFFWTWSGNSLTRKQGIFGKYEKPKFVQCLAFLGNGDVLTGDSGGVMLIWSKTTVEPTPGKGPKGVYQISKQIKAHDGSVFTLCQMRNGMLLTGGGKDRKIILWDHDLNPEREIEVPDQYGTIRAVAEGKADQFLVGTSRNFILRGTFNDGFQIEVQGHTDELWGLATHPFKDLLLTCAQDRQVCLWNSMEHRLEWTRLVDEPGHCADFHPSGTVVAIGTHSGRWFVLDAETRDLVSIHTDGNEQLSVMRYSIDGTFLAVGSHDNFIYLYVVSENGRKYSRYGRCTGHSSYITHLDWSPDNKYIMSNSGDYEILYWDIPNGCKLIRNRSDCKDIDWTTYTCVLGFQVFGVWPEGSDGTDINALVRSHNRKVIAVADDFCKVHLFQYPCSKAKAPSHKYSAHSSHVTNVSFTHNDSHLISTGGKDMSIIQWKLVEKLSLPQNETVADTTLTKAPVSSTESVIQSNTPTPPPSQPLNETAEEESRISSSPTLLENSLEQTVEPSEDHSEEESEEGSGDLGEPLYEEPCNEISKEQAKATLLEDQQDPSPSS
Sequence of Protein cereblon/ALK tyrosine kinase receptor/Echinoderm microtubule-associated protein-like 4 (Homo sapiens) (Q9UM73 19-1620 limits assumed): as the sequence (Q9UM73 19-1620 limits assumed) above

[6] = biological target: T1, Protein cereblon/ALK tyrosine kinase receptor/Nucleophosmin (Homo sapiens); assay: Protac activity at CRBN/NPM-ALK in human KARPAS-299 cells assessed as induction of NPM-ALK fusion protein degradation at 2 uM incubated for 24 hrs by Western blot analysis; assay type: cell-based
[7] = biological target: T2, ALK tyrosine kinase receptor; assay: Inhibition of ALK phosphorylation in human KARPAS-299 cells at 1 uM incubated for 24 hrs followed by compound washout and measured after 72 hrs by Western blot analysis; assay type: cell-based
[8] = biological target: T1, Protein cereblon/ALK tyrosine kinase receptor/Nucleophosmin (Homo sapiens); assay: Protac activity at CRBN/NPM-ALK in human KARPAS-299 cells assessed as induction of NPM-ALK fusion protein degradation at 1 uM incubated for 24 hrs followed by compound washout and measured after 24 hrs by Western blot analysis; assay type: cell-based
[9] = Half life in Sprague-Dawley rat at 1 mg/kg, iv administered as single dose measured for 24 hrs by LC-MS/MS analysis; assay type: ADME, organism-based; conditions: in vivo
[10] = Half life in Sprague-Dawley rat at 50 mg/kg, ip administered as single dose measured for 24 hrs by LC-MS/MS analysis; assay type: ADME, organism-based; conditions: in vivo
[11] = Tmax in Sprague-Dawley rat at 1 mg/kg, iv administered as single dose measured for 24 hrs by LC-MS/MS analysis; assay type: ADME, organism-based; conditions: in vivo
[12] = Cmax in Sprague-Dawley rat at 1 mg/kg, iv administered as single dose measured for 24 hrs by LC-MS/MS analysis; assay type: ADME, organism-based; set-up: time 24 hrs, dose 1 mg/kg, route iv; conditions: in vivo
[13] = Cmax in Sprague-Dawley rat at 50 mg/kg, ip administered as single dose measured for 24 hrs by LC-MS/MS analysis; assay type: ADME, organism-based; set-up: dose 50 mg/kg, time 24 hrs, route ip; conditions: in vivo
[14] = AUC (0 to t) in Sprague-Dawley rat at 1 mg/kg, iv administered as single dose measured for 24 hrs by LC-MS/MS analysis; assay type: ADME, organism-based; set-up: time 24 hrs, dose 1 mg/kg, route iv; conditions: in vivo
[15] = AUC (0 to t) in Sprague-Dawley rat at 50 mg/kg, ip administered as single dose measured for 24 hrs by LC-MS/MS analysis; assay type: ADME, organism-based; set-up: dose 50 mg/kg, time 24 hrs, route ip; conditions: in vivo
[16] = Volume of distribution in Sprague-Dawley rat at 50 mg/kg, ip administered as single dose measured for 24 hrs by LC-MS/MS analysis; assay type: ADME, organism-based; conditions: in vivo
[17] = MRTlast in Sprague-Dawley rat at 50 mg/kg, ip administered as single dose measured for 24 hrs by LC-MS/MS analysis; assay type: ADME, organism-based; conditions: in vivo
[18] = In vivo induction of degradation of ALK in human KARPAS-299 cells xenografted in NCG mouse assessed as ALK protein expression in tumor at 10 mg/kg, iv administered as single dose measured after 24 hrs by immunoblot analysis relative to control; assay type: functional
KARPAS-299 [19] = assay: Antitumor activity against human KARPAS-299 cells xenografted in NCG mouse assessed as tumor growth inhibition at 10 mg/kg, iv administered once every day for 3 weeks and measured every 3 days relative to control; assay type: functional; conditions: KARPAS-299, 504 h, read-out: TGI
[20] = Toxicity in NCG mouse xenografted with human KARPAS-299 cells assessed as body weight loss at 10 mg/kg, iv administered once every day for 3 weeks; assay type: organism-based; conditions: in vivo, 504 h
[21] = Toxicity in NCG mouse xenografted with human KARPAS-299 cells assessed as heart damage at 10 mg/kg, iv administered once every day for 3 weeks by H & E staining based analysis; assay type: organism-based; conditions: in vivo, 504 h
[22] = Toxicity in NCG mouse xenografted with human KARPAS-299 cells assessed as liver damage at 10 mg/kg, iv administered once every day for 3 weeks by H and E staining based analysis; assay type: organism-based; conditions: in vivo, 504 h
[23] = Toxicity in NCG mouse xenografted with human KARPAS-299 cells assessed as spleen damage at 10 mg/kg, iv administered once every day for 3 weeks by H and E staining based analysis; assay type: organism-based; conditions: in vivo, 504 h
[24] = Toxicity in NCG mouse xenografted with human KARPAS-299 cells assessed as lung damage at 10 mg/kg, iv administered once every day for 3 weeks by H and E staining based analysis; assay type: organism-based; conditions: in vivo, 504 h
KARPAS-299 [25] = assay: Antitumor activity against human KARPAS-299 cells xenografted in NCG mouse assessed as increase in ALK protein degradation at 25 to 50 mg/kg, ip administered once every day for 3 weeks; assay type: functional, organism-based; conditions: dose 25-50 mg/kg
BaF3 [26] = assay: Antiproliferative activity against mouse BaF3 cells expressing wild type EML-ALK assessed as cell viability at 1 uM incubated for 72 hrs by Celltitre-Glo assay relative to control; assay type: functional; conditions: read-out: Activity
BaF3 [27] = assay: Antiproliferative activity against crizotinib-resistant mouse BaF3 cells expressing EML-ALK L1196M mutant assessed as cell viability at 1 uM incubated for 72 hrs by Celltitre-Glo assay relative to control; assay type: functional; conditions: read-out: Activity
[28] = biological target: NPM/ALK (Nucleophosmin/ALK tyrosine kinase receptor) (Homo sapiens) (UniProt Q9UM73+P06748); assay: Induction of NPM-ALK degradation in human KARPAS-299 cells assessed as reduction in NPM-ALK protein level at 1 uM measured after 24 hrs by Western blot analysis; assay type: cell-based
Sequence of NPM/ALK (Nucleophosmin/ALK tyrosine kinase receptor) (Homo sapiens) (P06748 whole entry partner): as the sequence (P06748 whole entry partner, the tested form may be a part) above
Sequence of NPM/ALK (Nucleophosmin/ALK tyrosine kinase receptor) (Homo sapiens) (Q9UM73 19-1620 limits assumed): as the sequence (Q9UM73 19-1620 limits assumed) above

KARPAS-299 [29] = assay: Downregulation of ALK protein expression in human KARPAS-299 cells at 1 uM incubated for 24 hrs by iTRAQ proteomics analysis; assay type: functional, cell-based
KARPAS-299 [30] = assay: Downregulation of SOCS3 protein expression in human KARPAS-299 cells at 1 uM incubated for 24 hrs by iTRAQ proteomics analysis; assay type: functional, cell-based
[31] = biological target: T2, ALK tyrosine kinase receptor; assay: Inhibition of ALK phosphorylation in human KARPAS-299 cells at 0.01 to 1 uM measured after 24 hrs by Western blot analysis; assay type: cell-based; conditions: dose 0.01-1 µM
[32] = biological target: Signal transducer and activator of transcription 3 (Homo sapiens) (UniProt P40763); assay: Inhibition of STAT3 phosphorylation in human KARPAS-299 cells as 0.01 to 1 uM measured after 24 hrs by Western blot analysis; assay type: cell-based; conditions: dose 0.01-1 µM

IC50 (NCI-H3122): 62 nM
IC50 (KARPAS-299 [1]): 42 nM
Activity [2]: 85%
inhibition [3]: Active
inhibition [4]: > 85%
Activity [5]: Active
Activity [6]: Active
inhibition [7]: Active
Activity [8]: Active
half-life [9]: 0.42 h
half-life [10]: 30.5 h
Tmax [11]: 1.8 min
Cmax [12]: 994 ng/mL
Cmax [13]: 109 ng/mL
AUC(0-t) at 24 h [14]: 146 ng·h/mL
AUC(0-t) at 24 h [15]: 546 ng·h/mL
Vd [16]: 1685.67 L/kg
MRT last at 24 h [17]: 9.93 h
Activity [28]: Active
inhibition [31]: Active
inhibition [32]: Active
Compound: CCc1cc2c(cc1N1CCN(C(=O)CNc3cccc4c3C(=O)N(C3CCC(=O)NC3=O)C4=O)CC1)C(C)(C)c1[nH]c3cc(C#N)ccc3c1C2=O (stereo not drawn)
Activity [18]: 18.7%
inhibition in vivo at 10 mg/kg (KARPAS-299 [19]): 75.8%
Activity [20]: Non-Toxic
Activity [21]: Non-Toxic
Activity [22]: Non-Toxic
Activity [23]: Non-Toxic
Activity [24]: Non-Toxic
Activity (KARPAS-299 [25]): Active
viability at 1 µM (BaF3 [26]): 0.1%
viability at 1 µM (BaF3 [27]): 6.1%
Activity (KARPAS-299 [29]): Active
Activity (KARPAS-299 [30]): Active
